Data from patent US20240083904A1, “ANTAGONISTS OF THE ADENOSINE A2A RECEPTOR” (AdoRx Therapeutics Limited, priority 2020, published 2024).

Experiments:
[1] = target: human Adenosine A2a receptor (Homo sapiens (Human), UniProt P29274); assay: Adenosine receptor TR-FRET binding assay (A2a); conditions: CHO cell membranes, 100 nM CA200645, Ki from IC50 by Cheng and Prusoff
Experimental: (§1) All FRET binding experiments were conducted at room temperature in white 384-well plates, in assay binding buffer containing 1× LabMed (Cisbio, France), 100 μg/mL saponin, 1% DMSO and 0.02% pluronic acid. Binding of the fluorescently labelled Adenosine receptor antagonist XAC (CA200645, FRET acceptor) to terbium-labelled A1, A2a, A2b and A3 adenosine receptors (FRET donors) was detected by time-resolved FRET due to the close proximity of the donor and acceptor in a binding event. To investigate the ability of unlabelled test compounds to bind to Adenosine A1, A2a, A2b and A3 receptors, dose response curves were constructed that determined the ability of a range of concentrations to inhibit the binding of 30 nM CA200645 to the A2b receptor and 100 nM CA200645 to the A1, A2a, and A3 receptor.
(§2) Serial dilution (1:3 dilutions) of test compounds in neat DMSO and transfer of a 400 nL sample of test compound into the assay plate was carried out using the Mosquito (TTP Labtech, UK). The compound samples were incubated for 2 hours at room temperature with a fixed concentration of CA200645 defined for each receptor (see above) and CHO cell membranes containing the human Adenosine A1 (0.5 μg/well), A2a (0.3 μg/well), A2b (1 μg/well) or A3 (1 μg/well) receptor in 40 μL of assay buffer. Total and non-specific binding of CA200645 was determined in the absence and presence of 10 μM XAC, respectively. Following 2 hours incubation, the level of CA200645 binding was detected on a Pherastar FSX (BMG Labtech, Germany) using standard TR-FRET settings. The terbium donor was excited with three laser flashes at a wavelength of 337 nm, and donor and acceptor emission was detected at 620 nm and 665 nm wavelengths, respectively. FRET ratios were obtained by multiplying the acceptor/donor ratio value by 10,000. Specific binding was determined by subtracting the non-specific binding FRET ratio from the total binding FRET ratio. Compound IC50 curves were analysed using GraphPad Prism 7.0 (GraphPad, USA) and Ki affinity values were determined from the obtained IC50 values using the method of Cheng and Prusoff.

[2] = target: human Adenosine A3 receptor (Homo sapiens (Human), UniProt P0DMS8); assay: Adenosine receptor TR-FRET binding assay (A3); conditions: CHO cell membranes, 100 nM CA200645, Ki from IC50 by Cheng and Prusoff
human Adenosine A3 receptor, sequence (P0DMS8 whole entry): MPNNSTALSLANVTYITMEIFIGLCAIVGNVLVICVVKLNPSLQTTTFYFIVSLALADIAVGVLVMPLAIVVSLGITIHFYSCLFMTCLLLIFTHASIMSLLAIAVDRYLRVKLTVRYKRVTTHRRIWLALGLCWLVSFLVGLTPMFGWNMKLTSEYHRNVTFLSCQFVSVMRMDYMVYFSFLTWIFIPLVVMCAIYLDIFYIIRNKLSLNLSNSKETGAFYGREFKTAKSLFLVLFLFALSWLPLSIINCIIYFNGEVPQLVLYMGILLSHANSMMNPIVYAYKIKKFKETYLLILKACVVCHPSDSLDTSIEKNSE
Experimental: as §1, §2

[3] = target: human Adenosine A2b receptor (Homo sapiens (Human), UniProt P29275); assay: Adenosine receptor TR-FRET binding assay (A2b); conditions: CHO cell membranes, 30 nM CA200645, Ki from IC50 by Cheng and Prusoff
human Adenosine A2b receptor, sequence (P29275 whole entry): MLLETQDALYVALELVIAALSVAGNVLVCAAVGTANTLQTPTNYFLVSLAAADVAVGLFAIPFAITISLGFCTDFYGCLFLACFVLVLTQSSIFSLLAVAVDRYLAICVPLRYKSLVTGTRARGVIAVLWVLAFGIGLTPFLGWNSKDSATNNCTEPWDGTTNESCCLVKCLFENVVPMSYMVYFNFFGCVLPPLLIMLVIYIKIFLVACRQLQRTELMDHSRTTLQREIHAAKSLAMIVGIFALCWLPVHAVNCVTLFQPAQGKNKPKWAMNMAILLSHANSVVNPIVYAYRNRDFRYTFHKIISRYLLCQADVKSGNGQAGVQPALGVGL
Experimental: as §1, §2

[4] = test system: pCREB in CD8+ T cells in human whole blood; assay: Measurement of pCREB in CD8+ T cells in human whole blood; type: cell-based; conditions: T-cell, 3 μM NECA, rolipram, FACS
Experimental: Heparinised human whole blood was pre-incubated at 37° C. with serial dilutions of A2a antagonists for 20 min. and the phosphodiesterase inhibitor rolipram to amplify the pCREB response. The adenosine receptor agonist NECA is then added at a final concentration of 3 μM and following a 60 min incubation the blood is fixed and red blood cells lysed. White blood cells are isolated, permeabilized and stained with directly conjugated fluorescent antibodies to phospho-CREB (Alexa Fluor 488) and CD8 (Alexa Fluor 647) and the level of phospho-CREB in CD8+ T cells is measured by FACS using a BD Accuri C6 Flow Cytometer.

[5] = test system: human PBMCs; assay: CD3/CD28 stimulated IL-2 release NECA reversal assay in human PBMCs; type: cell-based; conditions: PBMC, 1 uM NECA, 24 hours
Experimental: Blood is drawn from healthy volunteers using sodium citrate as the anticoagulant (0.3% final concentration). After centrifugation of the blood over Histopaque-1077, PBMCs are collected from the Histopaque/plasma interface and washed twice in PBS (300 g for 10 mins at room temp). Cells are plated at 50,000 cells/well in 150 μl RPMI/10% FCS in 96-well cell culture plates that have been precoated with 1 ug/ml CD3 antibody. 50 μl diluted compound mix is added to the cells, to obtain final concentrations of 1 μg/ml CD28 antibody, 1 uM NECA and 0.003-10 μM adenosine receptor antagonist. Assay plates are incubated for 24 hours at 37° C. in a humidified incubator. Culture supernatant is tested for IL-2 levels using the human IL-2 Tissue Culture Kit (Meso Scale Discovery). Data for dose-response curves is calculated as % inhibition with 100% inhibition defined from no agonist control wells (+CD3/28-NECA)

[6] = target: human Adenosine A1 receptor (Homo sapiens (Human), UniProt P30542); assay: Adenosine receptor TR-FRET binding assay (A1); conditions: CHO cell membranes, 100 nM CA200645, Ki from IC50 by Cheng and Prusoff
human Adenosine A1 receptor, sequence (P30542 whole entry): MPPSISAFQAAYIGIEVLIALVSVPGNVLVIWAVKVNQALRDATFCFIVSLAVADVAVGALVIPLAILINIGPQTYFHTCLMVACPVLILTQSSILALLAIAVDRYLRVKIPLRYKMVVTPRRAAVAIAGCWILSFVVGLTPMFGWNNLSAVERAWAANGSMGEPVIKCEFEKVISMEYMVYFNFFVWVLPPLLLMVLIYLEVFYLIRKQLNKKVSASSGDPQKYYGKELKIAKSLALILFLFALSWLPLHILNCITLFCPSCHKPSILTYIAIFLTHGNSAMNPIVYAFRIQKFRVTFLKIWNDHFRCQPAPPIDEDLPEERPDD
Experimental: as §1, §2

human Adenosine A2a receptor, sequence (P29274 whole entry): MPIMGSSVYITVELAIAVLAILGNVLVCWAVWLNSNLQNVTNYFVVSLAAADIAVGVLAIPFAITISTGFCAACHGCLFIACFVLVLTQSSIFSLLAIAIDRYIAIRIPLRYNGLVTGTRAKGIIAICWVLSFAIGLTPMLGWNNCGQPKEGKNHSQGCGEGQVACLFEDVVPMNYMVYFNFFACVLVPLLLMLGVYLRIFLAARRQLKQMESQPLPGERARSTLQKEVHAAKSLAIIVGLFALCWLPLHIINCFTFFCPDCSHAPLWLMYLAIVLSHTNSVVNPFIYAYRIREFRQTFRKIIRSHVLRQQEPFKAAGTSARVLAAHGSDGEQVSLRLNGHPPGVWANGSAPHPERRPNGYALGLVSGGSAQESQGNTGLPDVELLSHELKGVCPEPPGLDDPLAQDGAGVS

Row | Structure (SMILES) | Ki [1] [nM] | Ki [2] [nM] | Ki [3] [nM] | IC50 [4] [nM] | IC50 [5] [nM] | Ki [6] [nM]
1 | Cc1cc(-c2c(-c3cccc(C#N)c3)nc3ccc(C(=O)N[C@H](C)C(C)(C)O)nn23)cc(C(F)(F)F)n1 [Example 2.7, 2-(3-Cyanophenyl)-N-[(1R)-2-hydroxy-1,2-dimethyl-propyl]-3-[2-methyl-6-(trifluoromethyl)-4-pyridyl]imidazo[1,2-b]pyridazine-6-carboxamide] | 0.34 | > 1000 | 79 | 499 | 10.5 | 324
2 | Cc1cc(-c2c(-c3cccc(C#N)c3)nc3ccc(C(=O)N[C@@H](C)C(C)(C)O)nn23)cc(C(F)(F)F)n1 [Example 2.6, 2-(3-Cyanophenyl)-N-[(1S)-2-hydroxy-1,2-dimethyl-propyl]-3-[2-methyl-6-(trifluoromethyl)-4-pyridyl]imidazo[1,2-b]pyridazine-6-carboxamide] | 0.17 | > 1000 | 18 | 58 | 0.6 | 30
3 | Cc1cc(-c2c(-c3cccc(C#N)c3)nc3ccc(C(=O)N[C@@H](C)C(C)(C)O)nn23)cc(C)n1 [Example 3, 2-(3-Cyanophenyl)-3-(2,6-dimethyl-4-pyridyl)-N-[(1S)-2-hydroxy-1,2-dimethyl-propyl]imidazo[1,2-b]pyridazine-6-carboxamide] | 0.16 | > 1000 | 31 | 61 | 1.7 | 71
4 | Cc1cc(-c2c(-c3cccc(C#N)c3)nc3ccc(C(=O)N[C@@H](C)C(C)(C)O)nn23)cc(C(F)F)n1 [Example 2.5, 2-(3-Cyanophenyl)-3-[2-(difluoromethyl)-6-methyl-4-pyridyl]-N-[(1S)-2-hydroxy-1,2-dimethyl-propyl]imidazo[1,2-b]pyridazine-6-carboxamide] | 0.32 | > 1000 | 34 | 105 | 1.1 | 78
5 | Cc1cc(-c2c(-c3cccc(C#N)c3)nc3ccc(C(=O)N[C@@H](C)C(C)(C)O)nn23)cc(Cl)n1 [Example 2.9, 3-(2-Chloro-6-methyl-4-pyridyl)-2-(3-cyanophenyl)-N-[(1S)-2-hydroxy-1,2-dimethyl-propyl]imidazo[1,2-b]pyridazine-6-carboxamide] | 0.2 | > 1000 | 20 | 168 | 5.3 | 96
6 | Cc1cc(-c2c(-c3cccc(C#N)c3)nc3ccc(C(=O)NCC(C)(C)O)nn23)cc(C)n1 [Example 2.1, 2-(3-Cyanophenyl)-3-(2,6-dimethyl-4-pyridyl)-N-(2-hydroxy-2-methyl-propyl)imidazo[1,2-b]pyridazine-6-carboxamide] | 0.79 | > 1000 | 212 | 122 | 13.8 | 667
7 | Cc1cc(-c2c(-c3cccc(C#N)c3)nc3ccc(C(=O)NCC(C)(C)O)nn23)cc(Cl)n1 [Example 2.2, 3-(2-Chloro-6-methyl-4-pyridyl)-2-(3-cyanophenyl)-N-(2-hydroxy-2-methyl-propyl)imidazo[1,2-b]pyridazine-6-carboxamide] | 0.5 | > 1000 | 27 | 496 | 39 | 363
8 | Cc1cc(-c2c(-c3cccc(C#N)c3)nc3ccc(C(=O)NCC(C)(C)O)nn23)cc(C(F)(F)F)n1 [Example 2.3, 2-(3-Cyanophenyl)-N-(2-hydroxy-2-methyl-propyl)-3-[2-methyl-6-(trifluoromethyl)-4-pyridyl]imidazo[1,2-b]pyridazine-6-carboxamide] | 0.46 | > 1000 | 18 | 282 | 7.3 | 95
9 | CC(C)(O)CNC(=O)c1ccc2nc(-c3cccc(C#N)c3)c(Br)n2n1 [Example 1, 3-Bromo-2-(3-cyanophenyl)-N-(2-hydroxy-2-methyl-propyl)imidazo[1,2-b]pyridazine-6-carboxamide] | 10.9 | > 1000 | 500 |  |  | 4000
10 | CC(=O)c1cc(-c2c(-c3cccc(C#N)c3)nc3ccc(C(=O)NCC(C)(C)O)nn23)cc(C)n1 [Example 2, 3-(2-Acetyl-6-methyl-4-pyridyl)-2-(3-cyanophenyl)-N-(2-hydroxy-2-methyl-propyl)imidazo[1,2-b]pyridazine-6-carboxamide] | 3.9 | > 1000 | 1580 |  |  | 1830
11 | COc1cc(-c2c(-c3cccc(C#N)c3)nc3ccc(C(=O)N[C@@H](C)C(C)(C)O)nn23)cc(C)n1 [Example 2.8, 2-(3-Cyanophenyl)-N-[(1S)-2-hydroxy-1,2-dimethyl-propyl]-3-(2-methoxy-6-methyl-4-pyridyl)imidazo[1,2-b]pyridazine-6-carboxamide] | 0.19 | > 1000 | 285 | 472 | 4.6 | 243
12 | Cc1cc(-c2c(-c3cccc(C#N)c3)nc3ccc(C(=O)N[C@@H](C)C(C)(C)O)nn23)cc(CO)n1 [Example 6, 2-(3-Cyanophenyl)-N-[(1S)-2-hydroxy-1,2-dimethyl-propyl]-3-[2-(hydroxymethyl)-6-methyl-4-pyridyl]imidazo[1,2-b]pyridazine-6-carboxamide] | 0.68 | > 1000 | 49 |  |  | 120
13 | COc1cc(-c2c(-c3cccc(C#N)c3)nc3ccc(C(=O)NCC(C)(C)O)nn23)cc(C)n1 [Example 2.4, 2-(3-Cyanophenyl)-N-(2-hydroxy-2-methyl-propyl)-3-(2-methoxy-6-methyl-4-pyridyl)imidazo[1,2-b]pyridazine-6-carboxamide] | 2.3 | > 1000 | 156 | 2040 | 13.5 | 286
